We go through eight molecules from patent US9056844B2, “4-substituted-3-benzyloxy-bicyclo[3.1.0]hexane compounds as mGluR 2/3 antagonists” (Eli Lilly and Company, priority 2010, dated 2015).

Assay [1] has as its system mice. Description: mFST with SSRI (fluoxetine combination). Format: in vivo, mouse. The settings on record: Example 10 17 mg/kg p.o., fluoxetine 10 mg/kg i.p., alone or combined. As to the method:
mFST is an established in vivo assay for antidepressant activity (Li et al. J Pharmacol Exp Ther. 319(1):254-9, 2006.). […] J Pharmacol Exp Ther. 319(1):254-9, 2006.). Briefly, male NIH-Swiss mice (Harlan Sprague-Dawley, Indianapolis, Ind.) weighing between 25-30 g are used. Group housed animals are removed from the vivarium to the testing area in their own cages and allowed to adapt to the new environment for at least 1 hour before testing. Compounds where R^1 and R^2 are both hydrogen are dissolved in water with minimal NaOH added for dissolution and are administered i.p. […] Mice are placed in a cylinder (diameter: 10 cm; height: 25 cm) filled with 6 cm of water (22-25° C.) for 6 min. The duration of immobility during the last 4 min. of the 6 min. period of the test was scored. A mouse is recorded as immobile when floating motionless or making only those movements necessary to keep its head above water. The compounds of the invention may also be tested in combination with other compounds useful for the treatment of depressive disorders, as for example SSRI's, for their ability to enhance the antidepressant-like effects over that of either compound alone.

For assay [2], the system named is male NIH-Swiss mice. Description: Forced-swim test in mice (mFST). Format: in vivo, mouse. The settings on record: for ED60: Mus musculus, immobility in last 4 min of 6 min; for Maximal Decrease (1 − compound/control) * 100%: immobility time. The text has this: Forced-Swim Test in Mice (mFST)
mFST is an established in vivo assay for antidepressant activity (Li et al. J Pharmacol Exp Ther. 319(1):254-9, 2006.). […] The mFST was used to evaluate potential antidepressant-like activity of novel mGlu2/3 antagonists essentially as described in previously published methods (see for example, Li et al. J Pharmacol Exp Ther. 319(1):254-9, 2006.). Briefly, male NIH-Swiss mice (Harlan Sprague-Dawley, Indianapolis, Ind.) weighing between 25-30 g are used. Group housed animals are removed from the vivarium to the testing area in their own cages and allowed to adapt to the new environment for at least 1 hour before testing. Compounds where R^1 and R^2 are both hydrogen are dissolved in water with minimal NaOH added for dissolution and are administered i.p. Compounds where R^1 and/or R^2 are other than hydrogen are prepared on the day of use in 2.0-2.5% N-methyl-pyrrolidinone and then suspended in 1% HEC, 0.25% Tween 80, and 0.05% Dow antifoam, and administered orally. Mice are placed in a cylinder (diameter: 10 cm; height: 25 cm) filled with 6 cm of water (22-25° C.) for 6 min. The duration of immobility during the last 4 min. of the 6 min. period of the test was scored. A mouse is recorded as immobile when floating motionless or making only those movements necessary to keep its head above water.

The target of assay [3] is T1, human mGlu2 receptors (Homo sapiens, UniProt Q14416).
T1 construct: expressed in transfected cells; host or cells: AV12 cells, co-expressing rat EAAT1
T1 sequence (Q14416 19-872): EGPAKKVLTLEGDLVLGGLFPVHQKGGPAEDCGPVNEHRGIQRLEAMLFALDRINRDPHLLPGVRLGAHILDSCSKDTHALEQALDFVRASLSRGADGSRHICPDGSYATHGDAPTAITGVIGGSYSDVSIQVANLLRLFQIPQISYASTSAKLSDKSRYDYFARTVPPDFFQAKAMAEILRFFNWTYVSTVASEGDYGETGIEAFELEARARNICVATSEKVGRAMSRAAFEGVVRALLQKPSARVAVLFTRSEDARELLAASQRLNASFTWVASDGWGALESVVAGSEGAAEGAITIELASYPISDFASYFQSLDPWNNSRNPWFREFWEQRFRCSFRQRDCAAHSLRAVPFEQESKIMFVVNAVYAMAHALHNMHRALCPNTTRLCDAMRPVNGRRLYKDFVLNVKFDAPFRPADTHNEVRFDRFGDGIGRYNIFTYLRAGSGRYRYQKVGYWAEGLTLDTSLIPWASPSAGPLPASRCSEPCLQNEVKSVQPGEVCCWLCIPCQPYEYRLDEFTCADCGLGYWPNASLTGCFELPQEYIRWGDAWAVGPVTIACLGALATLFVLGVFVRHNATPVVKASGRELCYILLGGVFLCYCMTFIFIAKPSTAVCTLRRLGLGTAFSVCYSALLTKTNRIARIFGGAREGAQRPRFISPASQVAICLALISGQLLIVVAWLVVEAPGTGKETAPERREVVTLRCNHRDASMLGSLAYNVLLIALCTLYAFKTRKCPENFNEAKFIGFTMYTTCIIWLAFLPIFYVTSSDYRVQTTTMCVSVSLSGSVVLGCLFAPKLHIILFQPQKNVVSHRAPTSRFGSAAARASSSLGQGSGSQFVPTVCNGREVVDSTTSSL
Nature of the assay: mGlu2 receptor cAMP antagonist assay. Format: cell-based. Particulars: reversal of DCG IV (EC90) inhibition of forskolin-stimulated cAMP; AV12 cells. As to the method:
(§1) mGlu2 and mGlu3 Receptor cAMP Antagonist Assays
Antagonist activity is assayed in recombinant AV12 cells stably expressing human mGlu2 or mGlu3 receptors and the rat glutamate transporter EAAT1 (Excitatory Amino Acid Transporter 1). The cell lines are maintained by culturing in DMEM with high glucose and pyridoxine hydrochloride supplemented with 5% dialyzed fetal bovine serum (FBS), 1 mM sodium pyruvate, 1 mM HEPES and 1 mM L-glutamine; geneticin and hygromycin B are used as selection antibiotics.
Reversal of the inhibition of forskolin-stimulated cAMP production by test compounds is measured using homogeneous time resolved fluorescence technology (HTRF; Cisbio cat #62AM4PEB). The medium is removed and the cells are incubated with 100 μl cAMP stimulation buffer (STIM) for 30 minutes at 37° C. […] Cells are incubated at 37° C. for 20 minutes. To measure the cAMP levels, cAMP-d2 conjugate and anti cAMP-cryptate conjugate in lysis buffer are incubated with the treated cells at room temperature for 1 hour (mGlu2) or 1.5 hour (mGlu3). […] The raw data are converted to cAMP amount (pmole/well) using a cAMP standard curve generated for each experiment. Relative IC50 values are calculated from the top-bottom range of the concentration response curve using a four-parameter logistic curve fitting program (ActivityBase v5.3.1.22).

Assay [4] deals with T2, human mGlu3 receptors (Homo sapiens, UniProt Q14832).
T2 construct: expressed in transfected cells; host or cells: AV12 cells, co-expressing rat EAAT1
T2 sequence (Q14832 23-879): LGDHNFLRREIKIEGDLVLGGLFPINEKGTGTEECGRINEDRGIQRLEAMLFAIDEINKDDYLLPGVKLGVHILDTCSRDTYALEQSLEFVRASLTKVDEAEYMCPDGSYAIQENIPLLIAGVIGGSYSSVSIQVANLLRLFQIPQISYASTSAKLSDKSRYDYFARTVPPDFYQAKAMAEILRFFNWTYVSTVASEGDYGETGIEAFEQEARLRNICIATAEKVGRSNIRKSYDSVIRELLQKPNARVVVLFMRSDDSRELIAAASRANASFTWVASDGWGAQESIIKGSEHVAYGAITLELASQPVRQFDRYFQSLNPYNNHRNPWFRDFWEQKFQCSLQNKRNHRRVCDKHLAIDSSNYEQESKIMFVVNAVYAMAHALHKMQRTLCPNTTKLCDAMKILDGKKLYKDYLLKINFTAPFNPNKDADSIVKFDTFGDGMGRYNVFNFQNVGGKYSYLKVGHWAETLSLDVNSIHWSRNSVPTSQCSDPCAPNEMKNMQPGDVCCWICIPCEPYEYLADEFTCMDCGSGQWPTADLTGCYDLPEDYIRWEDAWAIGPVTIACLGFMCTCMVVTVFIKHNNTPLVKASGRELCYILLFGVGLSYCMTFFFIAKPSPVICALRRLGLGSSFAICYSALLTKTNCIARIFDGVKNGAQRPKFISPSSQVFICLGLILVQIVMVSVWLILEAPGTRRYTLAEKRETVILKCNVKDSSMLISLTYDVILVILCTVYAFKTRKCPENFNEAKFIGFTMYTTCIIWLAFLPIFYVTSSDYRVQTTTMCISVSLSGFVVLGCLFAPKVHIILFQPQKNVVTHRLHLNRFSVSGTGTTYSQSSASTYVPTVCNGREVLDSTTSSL
Description: mGlu3 receptor cAMP antagonist assay. The assay is classed as cell-based. Particulars: reversal of DCG IV (EC90) inhibition of forskolin-stimulated cAMP; AV12 cells. The procedure: as §1
Antagonist activity is assayed in recombinant AV12 cells stably expressing human mGlu2 or mGlu3 receptors and the rat glutamate transporter EAAT1 (Excitatory Amino Acid Transporter 1). The cell lines are maintained by culturing in DMEM with high glucose and pyridoxine hydrochloride supplemented with 5% dialyzed fetal bovine serum (FBS), 1 mM sodium pyruvate, 1 mM HEPES and 1 mM L-glutamine; geneticin and hygromycin B are used as selection antibiotics. Confluent cultures are grown at 37° C. in an atmosphere containing 6.5% CO2, and passaged biweekly. Cells are harvested using 0.25% trypsin, suspended in freeze media (FBS with 10% DMSO) at 10^7 cells/ml, and aliquots are stored in liquid nitrogen. Twenty-four hours before the assay, cells are plated at a density of 8,000-10,000 cells per well in a tissue culture treated, 96-well, half-area black plates (Costar 3875) in 50 μl of DMEM with high glucose and pyridoxine hydrochloride supplemented with 5% dialyzed FBS, 1 mM sodium pyruvate, 1 mM HEPES, 100 μg/ml ampicillin, and 250 μM (mGlu2) or 125 μM (mGlu3) of L-glutamine.
Reversal of the inhibition of forskolin-stimulated cAMP production by test compounds is measured using homogeneous time resolved fluorescence technology (HTRF; Cisbio cat #62AM4PEB). The medium is removed and the cells are incubated with 100 μl cAMP stimulation buffer (STIM) for 30 minutes at 37° C. (STIM buffer contains 500 ml HBSS, 1000 ml DPBS, 0.034% BSA, 1.67 mM HEPES and 500 μM IBMX (Sigma 15879).) Compounds are tested in 10-point concentration response curves using 3× serial dilution followed by further 40-fold dilution into STIM buffer. DCG IV (Tocris 0975) serves as the reference agonist. The final reaction mixture contains 1 μM (for mGlu2) or 3 μM (for mGlu3) of forskolin (Sigma F6886), DCG IV at its EC90, and up to 25 μM of test compound. Cells are incubated at 37° C. for 20 minutes. To measure the cAMP levels, cAMP-d2 conjugate and anti cAMP-cryptate conjugate in lysis buffer are incubated with the treated cells at room temperature for 1 hour (mGlu2) or 1.5 hour (mGlu3). The HTRF signal is detected using an EnVision plate reader (Perkin-Elmer) to calculate the ratio of fluorescence at […]. The raw data are converted to cAMP amount (pmole/well) using a cAMP standard curve generated for each experiment. Relative IC50 values are calculated from the top-bottom range of the concentration response curve using a four-parameter logistic curve fitting program (ActivityBase v5.3.1.22).

Assay [5] deals with T3, human mGlu6 receptor (Homo sapiens, UniProt O15303).
T3 construct: expressed in transfected cells; host or cells: AV12 cells, co-expressing rat EAAT1
T3 sequence (O15303 25-877): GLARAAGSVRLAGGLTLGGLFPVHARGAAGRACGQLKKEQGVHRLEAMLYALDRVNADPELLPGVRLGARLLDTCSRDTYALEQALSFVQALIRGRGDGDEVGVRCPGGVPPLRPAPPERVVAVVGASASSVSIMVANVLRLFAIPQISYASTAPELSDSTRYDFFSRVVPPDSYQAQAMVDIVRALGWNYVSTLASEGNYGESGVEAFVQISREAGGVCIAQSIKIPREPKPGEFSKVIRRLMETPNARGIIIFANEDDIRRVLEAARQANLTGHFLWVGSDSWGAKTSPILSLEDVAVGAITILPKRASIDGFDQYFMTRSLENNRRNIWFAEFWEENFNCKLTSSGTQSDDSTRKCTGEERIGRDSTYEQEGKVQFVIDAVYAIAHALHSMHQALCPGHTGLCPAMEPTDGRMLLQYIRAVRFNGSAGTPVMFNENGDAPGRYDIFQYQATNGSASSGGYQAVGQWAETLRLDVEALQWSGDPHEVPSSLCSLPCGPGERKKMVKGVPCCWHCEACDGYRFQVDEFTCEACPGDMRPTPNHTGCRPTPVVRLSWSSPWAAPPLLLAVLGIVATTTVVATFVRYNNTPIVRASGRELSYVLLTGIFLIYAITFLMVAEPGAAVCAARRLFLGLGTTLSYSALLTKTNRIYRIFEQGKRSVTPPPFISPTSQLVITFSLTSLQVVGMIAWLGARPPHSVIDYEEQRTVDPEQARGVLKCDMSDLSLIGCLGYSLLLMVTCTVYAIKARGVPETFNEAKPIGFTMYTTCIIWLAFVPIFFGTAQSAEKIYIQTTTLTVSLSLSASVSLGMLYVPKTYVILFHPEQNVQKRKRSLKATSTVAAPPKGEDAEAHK
Nature of the assay: mGlu6 cAMP antagonist assay (reference agonist L-AP4). Format: cell-based. The settings on record: cAMP format. The text has this:
FLIPR and cAMP Assays for mGlu Receptor Selectivity
The relative antagonist potencies of the compounds of the invention for the other human mGlu receptors can be assessed with either a cAMP assay or fluorometric calcium response assay (see for example Fell et al., JPET (in press)). Briefly, individual AV12 cell lines containing the rat EAAT1 glutamate transporter and stably expressing the human mGlu1, 2, 3, 4, 5, 6, & 8 receptors are used for these studies. The mGlu1 and 5 receptors are […], so they naturally signal through phospholipase C, producing a calcium flux response which can be used to measure receptor activation using a Fluorometric Imaging Plate Reader (FLIPR, Molecular Devices). The cell lines expressing the mGlu2, 3, 4, and 8 receptor are designed to express the Gα15 subunit so that these Gi-coupled receptors will generate a calcium flux response similar to the mGlu1 and 5 receptor expressing cell lines. The mGlu6 receptor is tested in a cAMP format using methods analogous to those developed for mGlu2 and mGlu3 above. These cell lines are maintained as previously described except that amounts of L-glutamine and selection agents (geneticin, hygromycin B, zeocin, and blasticidin) may vary depending on the cell line. Confluent cultures are passaged biweekly.
Antagonist activity in mGlu6 cells is measured using cAMP in a method analogous to that described above for mGlu2 and mGlu3 activity, except that the reference agonist was L-AP4 (Tocris). […] Relative IC50 and EC50 values are calculated from the top-bottom range of the concentration response curve using a four-parameter logistic curve fitting program (ActivityBase v5.3.1.22).

Structures are written as SMILES.

In the case of `CNCCC(Oc1ccc(C(F)(F)F)cc1)c1ccccc1` (stereo not drawn) [Fluoxetine, fluoxetine, reference compound], the “Maximal Decrease (1 − compound/control) * 100%” value in assay [1] is on record as 7.6%. In addition, in assay [1] (vehicle 174), the “Immobilization Time” value came out at 161 s.

`Cl.N[C@]1(C(=O)OCOC(=O)C2CC2)[C@@H]2[C@@H](C(=O)OCOC(=O)C3CC3)[C@@H]2[C@H](O)[C@H]1OCc1ccc(Cl)c(Cl)c1` [Example 13, Bis{[(cyclopropylcarbonyl)oxy]methyl} (1S,2R,3S,4S,5R,6R)-2-amino-3-[(3,4-dichlorobenzyl)oxy]-4-hydroxybicyclo[3.1.0]hexane-2,6-dicarboxylate hydrochloride] showed an ED60 in assay [2] (po) of 11.3 mg/kg. In assay [2] (p.o.), the “Maximal Decrease (1 − compound/control) * 100%” value worked out at 62.8%.

In assay [2] (po), `CC(C)C(=O)OCOC(=O)[C@H]1[C@@H]2[C@H](O)[C@@H](OCc3ccc(Cl)c(Cl)c3)[C@@](N)(C(=O)OCOC(=O)C(C)C)[C@H]12.Cl` [Example 12, Bis{[(2-methylpropanoyl)oxy]methyl} (1S,2R,3S,4S,5R,6R)-2-amino-3-[(3,4-dichlorobenzyl)oxy]-4-hydroxybicyclo[3.1.0]hexane-2,6-dicarboxylate hydrochloride] showed an ED60 of over 28 mg/kg. In addition, the “Maximal Decrease (1 − compound/control) * 100%” value in assay [2] (p.o.) came to 7%.

As a reminder, the IC50 is the concentration that gives 50% inhibition. Consider `N[C@]1(C(=O)O)[C@@H]2[C@@H](C(=O)O)[C@@H]2[C@H](Sc2nccs2)[C@H]1OCc1ccc(Cl)c(Cl)c1` [Example 3, (1R,2R,3S,4S,5R,6R)-2-Amino-3-[(3,4-dichlorobenzyl)oxy]-4-(1,3-thiazol-2-ylsulfanyl)bicyclo[3.1.0]hexane-2,6-dicarboxylic acid], for which the 50% inhibitory concentration (IC50) in assay [3] stood at 25.4 ± 4.8 nM; in assay [4], 10.8 nM; in assay [5], 2480 ± 295 nM. Also, in assay [2] (ip), the ED60 was found to be 8.2 mg/kg. Further, in assay [2] (i.p.), the “Maximal Decrease (1 − compound/control) * 100%” value was determined as 47%.

On to `CCOC(=O)OCOC(=O)[C@H]1[C@@H]2[C@H](O)[C@@H](OCc3ccc(Cl)c(Cl)c3)[C@@](N)(C(=O)OCOC(=O)OCC)[C@H]12.Cl` [Example 11, Bis{[(ethoxycarbonyl)oxy]methyl} (1S,2R,3S,4S,5R,6R)-2-amino-3-[(3,4-dichlorobenzyl)oxy]-4-hydroxybicyclo[3.1.0]hexane-2,6-dicarboxylate hydrochloride], for which the ED60 in assay [2] (po) came to 51.5 mg/kg. In assay [2] (p.o.), the “Maximal Decrease (1 − compound/control) * 100%” value is given as 32.9%.

In the case of `Cl.Cn1ncnc1S[C@H]1[C@H]2[C@H](C(=O)O)[C@H]2[C@](N)(C(=O)O)[C@@H]1OCc1ccc(Cl)c(Cl)c1` [Example 6, (1R,2R,3S,4S,5R,6R)-2-amino-3-[(3,4-dichlorobenzyl)oxy]-4-[(1-methyl-1H-1,2,4-triazol-5-yl)sulfanyl]bicyclo[3.1.0]hexane-2,6-dicarboxylic acid hydrochloride], the IC50 was determined as 18.6 ± 3.9 nM in assay [3], 13.9 ± 2.4 nM in assay [4] and 1360 ± 433 nM in assay [5]. The same molecule registered an ED60 in assay [2] (ip) of 7.3 mg/kg. In assay [2] (i.p.), the “Maximal Decrease (1 − compound/control) * 100%” value was determined as 47%.

In the case of `Cl.N[C@]1(C(=O)O)[C@@H]2[C@@H](C(=O)O)[C@@H]2[C@H](Sc2ncc[nH]2)[C@H]1OCc1ccc(Cl)c(Cl)c1` [Example 8, (1R,2R,3S,4S,5R,6R)-2-Amino-3-[(3,4-dichlorobenzyl)oxy]-4-(1H-imidazol-2-ylsulfanyl)bicyclo[3.1.0]hexane-2,6-dicarboxylic acid hydrochloride], the IC50 came to 26 ± 0.5 nM in assay [4] and 2580 nM in assay [5]. The ED60 in assay [2] (ip) came out at 9.1 mg/kg. For the same molecule, in assay [2] (i.p.), the “Maximal Decrease (1 − compound/control) * 100%” value came out at 41%.

For `COC(=O)N[C@H]1[C@H]2[C@H](C(=O)O)[C@H]2[C@](N)(C(=O)O)[C@@H]1OCc1ccc(Cl)c(Cl)c1` [Example 5, (1S,2R,3R,4S,5R,6S)-2-Amino-3-[(3,4-dichlorobenzyl)oxy]-4-[(methoxycarbonyl)amino]bicyclo[3.1.0]hexane-2,6-dicarboxylic acid], the IC50 in assay [3] came to 16.8 ± 1.6 nM; in assay [4], 9.5 ± 4.6 nM; in assay [5], 1580 ± 141 nM. Besides, in assay [2] (ip), the ED60 was determined as 7.45 mg/kg. Further, in assay [2] (i.p.), the “Maximal Decrease (1 − compound/control) * 100%” value was 56%.
